Test results published in patent EP0642351B1, “NEW PHARMACEUTICAL USES OF KRILL ENZYMES” (PHAIRSON MEDICAL, INC., priority 1992, dated 1993).
Where two headings read alike, the source gives them in different places.

Legend:
[1] = tested on: primary and secondary liver cancer; settings: phase II study, Japan; T. Taguchi et al; cited from earlier work
[2] = tested on: Yoshida Sarcoma; settings: cited from earlier work
[3] = tested on: cell linjes, HIV-I infected to 40-60%; assay: Example 39 - Cell viability (tox.) in HIV-contaminated cell lines, in vitro; assay type: cell-based
Protocol: (§1) This study was carried out at the Swedish National Bacterological Laboratory (SBL). Multi-Protein was compared to AZT and Foscarnet. All preparations were tested at dilutions from undiluted to 10^-5 (highest concentration for Multi-Protein was 5 mg/ml). The preparations were added to the cell linjes, HIV-I infected to 40-60%, under identical and standardized conditions.
(§2) Control: 50% infected cells. Cell toxicity and percentage of infected cells measured by immunofluorescence.
(§3) Control: 50% infected cells. Cell toxicity and percentage of infected cells measured by immanofluorescence.

[4] = as above; assay type: cell-based
Protocol: as §1, §2, §3

[5] = tested on: mice with P388 murine leukemia; assay: Toxicity on mice with s.c. implanted P388 murine leukemia, i.p. daily during 9 consecutive days; assay type: in vivo; settings: 9 days
Protocol: It may be worth mentioning that the highest dose of PHIM (20 mg/kg) is far higher than any of the curing doses used in any of the clinical examples which have been reported earlier in this description.

COc1cccc2c1C(=O)c1c(O)c3c(c(O)c1C2=O)C[C@@](O)(C(=O)CO)C[C@@H]3O[C@H]1C[C@H](N)[C@H](O)[C@H](C)O1 [Adriamycin]
response rate (CR and PR) [1]: 9.5%

CO[C@@]12[C@H](COC(N)=O)C3=C(C(=O)C(C)=C(N)C3=O)N1C[C@@H]1N[C@@H]12 [Mitomycin C]
response rate (CR and PR) [1]: 20% | side effect profile ([2]; 0.5 mg/kg as well as lower doses): loss of body weight, hair loss, decreased leucocytes and chronic diarrhoea | effect on Yoshida Sarcoma resistant to Mitomycin C ([2]; 0.5 mg/kg or even higher doses): no effects could be detected | efficacy calculated as 30 days of survival of the rats ([2]; non-resistant Yoshida Sarcoma, doses up to 0.5 mg/kg): ~100%

O=C(O)P(=O)(O)O [Foscarnet]
effect on the cells in the cultures ([3]; at low dilutions): all cells in the cultures were attacked and killed | viability ([4]; Trial 1, moi 0.4, Multi-Protein: deformed cells, read-out: Cell viability (tox.)): 100%

COc1cccc2c1C(=O)c1c(O)c3c(c(O)c1C2=O)C[C@@](O)(C(=O)CO)C[C@@H]3O[C@H]1C[C@H](N)[C@H](O)[C@H](C)O1 [DOX, doxorubicin]
Toxic death ([5]; Dose 1.25 mg/kg i.p. daily): 0/6 | Toxic death ([5]; Dose 2.5 mg/kg i.p. daily): 6/6 | Body weight change ([5]; Dose 5 mg/kg i.p. daily): -2.3 g | Toxic death ([5]; Dose 5 mg/kg i.p. daily): 6/6

Cc1cn([C@H]2C[C@H](N=[N+]=[N-])[C@@H](CO)O2)c(=O)[nH]c1=O [AZT]
effect on the cells in the cultures [3]: all cells in the cultures were attacked and killed | viability [4]: 100%

N.N.[Cl][Pt][Cl] [Cisplatin]
tumour cells not killed ([2]; cells removed from the tumour and cultured): 53%
